Assay results taken from patent US20220031736A1, “USE OF ANIONIC CLAY IN PREPARING LEAD-REMOVING MEDICINE” (priority 2019, published 2022).
Values joined by “and” are separate entries in the source; they are usually repeats but may differ in a detail not shown here. Equal values may be shown once.

Test system: rats with chronic lead poisoning
Assay: Chronic rat lead poisoning model, administration for treatment
Assay type: in vivo
Experimental: After the model was successfully established, the lead was stopped and the rates were fed with distilled water from the 31st day. […] The rats in the positive medicine group were given a dose of 10 mg/kg of sodium dimercaptosuccinate by intragastric administration, and all the intragastric subjects were given in equal volume twice a day for 30 days. On the 60th day, blood samples were collected. Brain, liver and femur samples were collected and stored in liquid nitrogen for later use. After wet digestion, the blood samples and tissues of each group were tested for content of lead by inductively coupled plasma mass spectrometry (ICP-MS), and the lead-removing rates were counted.
All the data were processed by SPSS 20.0 statistical software. Every group of measurement data was expressed by mean±[…] (mean±SD), and all of which were tested for homogeneity of variance by Levene method first. If the variances were homogeneous, single factor analysis of variance was used among multiple groups, and two-sample T test was used between two groups. If the hypothesis of parameter test was unreasonable, Kruskal-Wallis test was used among multiple groups, while Wilcoxon test was used between two groups. p<0.05 or p<0.01 was statistically significant.
40 male SD rats were randomly divided into five groups including a normal group, a model group, a positive medicine group (sodium dimercaptosuccinate group), a high-dose magaldrate group and a low-dose magaldrate group according to their body weights, and each group included 8 rats. Except the rats in the normal group were given ultrapure water, the rats in the model group, the positive medicine group, and the magaldrate groups of each dose drank 0.5% lead acetate ultrapure water solution for 30 days, resulting in chronic lead-exposed models. After the model was successfully established, the lead was stopped and the rates were fed with distilled water from the 31st day. The rats in the normal group were given an equal volume of 0.5% CMC-Na solution by intragastric administration, while the rats in the high-dose magaldrate group and the low-dose magaldrate group were given a high dose of 0.6 g/kg and a low dose of 0.3 g/kg respectively by intragastric administration. The rats in the positive medicine group were given a dose of 10 mg/kg of sodium dimercaptosuccinate by intragastric administration, and all the intragastric subjects were given in equal volume twice a day for 30 days. On the 60th day, blood samples were collected. Brain, liver and femur samples were collected and stored in liquid nitrogen for later use. After wet digestion, the blood samples and tissues of each group were tested for content of lead by inductively coupled plasma mass spectrometry (ICP-MS), and the lead-removing rates were counted. […]

[1] = 60th day, positive medicine 0.01 g/kg intragastric twice a day for 30 days, mean ± SD

## O=C([O-])C(S)C(S)C(=O)[O-].[Na+].[Na+] (stereo not shown) [Sodium dimercaptosuccinate, sodium dimercaptosuccinate]
[1]
  Content of lead in blood: 0.058 ± 0.01 µg/g and 0.069 ± 0.01 µg/g and 0.059 ± 0.01 µg/g and 0.073 ± 0.01 µg/g
  Content of lead in brain: 0.129 ± 0.03 µg/g and 0.218 ± 0.04 µg/g and 0.178 ± 0.04 µg/g and 0.165 ± 0.05 µg/g
  Femur content of lead: 32.085 ± 4.73 µg/g and 35.006 ± 3.92 µg/g and 28.075 ± 3.25 µg/g and 33.478 ± 4.86 µg/g
Positive medicine group 10 mg/kg, versus model group
  Removing rate, lead in bones: 0.00%
